From ChEMBL document CHEMBL3244292, “Imidazo[4,5-f]quinolines. 2. A series of 9-(substituted amino)imidazo[4,5-f]quinolines as antitapeworm agents” (1977)
Active and inactive are the calls of the source. The calls are words filed in the database; no cut-off is given here.

Key:
Type in all cases: functional
Rodentolepis nana [1] = test: Anthelmintic activity against Hymenolepis nana infected in mouse assessed as reduction in worm burden at 100 mg/kg administered bid for 3 days relative to control; set-up: scale not given: the % may be the effect or the level left
Rodentolepis nana [2] = test: Anthelmintic activity against Hymenolepis nana infected in mouse assessed as reduction in worm burden at 50 mg/kg administered bid for 3 days relative to control
Rodentolepis nana [3] = test: Anthelmintic activity against Hymenolepis nana infected in mouse assessed as reduction in worm burden at 25 mg/kg administered bid for 3 days relative to control

Structure (SMILES) | Activity (Rodentolepis nana [1]) [%] | Activity (Rodentolepis nana [2]) | Activity (Rodentolepis nana [3])
Cc1cc(Nc2ccc(Br)cc2)c2c(ccc3nc[nH]c32)n1 | 61 | inactive | 
COc1ccc(Nc2cccc(Nc3cc(C)nc4ccc5nc[nH]c5c34)c2)cn1 | 100 | 94% | inactive
COc1ccc(Nc2cc(C)nc3ccc4nc[nH]c4c23)cc1OC | 73 | inactive | 
CCN(CC)c1ccc(Nc2cc(C)nc3ccc4nc[nH]c4c23)cc1 | 79 | inactive | 
COc1ccc(Nc2cc(-c3ccccc3)nc3ccc4nc[nH]c4c23)cc1 | 66 | inactive | 
CCOc1ccc(OCC)c(Nc2cc(C)nc3ccc4nc[nH]c4c23)c1 | 100 | 100% | inactive
Cc1cc(Nc2ccc(F)c(Cl)c2)c2c(ccc3nc[nH]c32)n1 | 82 | inactive | 
Cc1cc(Nc2ccc(Oc3ccccc3)cc2)c2c(ccc3nc[nH]c32)n1 | 100 | 66% | inactive
Cc1cc(Nc2cccc(N(C)C)c2)c2c(ccc3nc[nH]c32)n1 | 100 | 87% | inactive
Cc1cc(Nc2ccc(OCc3ccccc3)cc2)c2c(ccc3nc[nH]c32)n1 | 81 | 64% | 
COc1ccc(OC)c(Nc2cc(C)nc3ccc4nc[nH]c4c23)c1 | 100 | inactive | 
CCC(C)c1ccc(Nc2cc(C)nc3ccc4nc[nH]c4c23)cc1 (configuration not stated) | 100 | inactive | 
CCOc1ccc(Nc2cc(C)nc3ccc4nc[nH]c4c23)cc1 | 100 | inactive | 
COc1ccc(Nc2cc(C)nc3ccc4nc[nH]c4c23)cc1 | 64 | inactive | 
COc1cc(Nc2cc(C)nc3ccc4nc[nH]c4c23)cc(OC)c1OC | 70 | inactive | 
CCc1cc(Nc2ccc(OC)cc2)c2c(ccc3nc[nH]c32)n1 | 46 | inactive | 

Structure (SMILES) | Activity (Rodentolepis nana [1]) [%] | Activity (Rodentolepis nana [2]) | Activity (Rodentolepis nana [3])
Cc1cc(Nc2ccc(Cl)cc2C)c2c(ccc3nc[nH]c32)n1 | 100 | inactive | 
Cc1cc(Nc2ccc(Cl)c(Cl)c2)c2c(ccc3nc[nH]c32)n1 | 65 | inactive | 
COc1ccccc1Nc1cc(C)nc2ccc3nc[nH]c3c12 | 66 | inactive | 
COc1cc(Cl)ccc1Nc1cc(C)nc2ccc3nc[nH]c3c12 | 52 | inactive | 
Cc1cc(Nc2ccc(I)cc2)c2c(ccc3nc[nH]c32)n1 | 84 | inactive | 
Cc1cc(Nc2ccc3ccccc3c2)c2c(ccc3nc[nH]c32)n1 | 72 | inactive | 
Cc1cc(Nc2ccc(N(C)C)c(Cl)c2)c2c(ccc3nc[nH]c32)n1 | 71 | inactive | 
Cc1cc(Nc2cccc3ccccc23)c2c(ccc3nc[nH]c32)n1 | 100 | inactive | 
COc1ccc(Nc2cc(C)nc3ccc4nc(-c5ccccc5)[nH]c4c23)cc1 | 94 | inactive | 
COc1cccc(Nc2cc(C)nc3ccc4[nH]cnc4c23)c1 | 73 | inactive | 
CSc1cccc(Nc2cc(C)nc3ccc4nc[nH]c4c23)c1 | 100 | inactive | 
CCCCCOc1ccc(Nc2cc(C)nc3ccc4nc[nH]c4c23)cc1OCCCCC | 63 | inactive | 
CC(=O)c1cccc(Nc2cc(C)nc3ccc4nc[nH]c4c23)c1 | 96 | inactive | 
Cc1cc(Nc2ccc(N(C)C)cc2)c2c(ccc3nc[nH]c32)n1 | 100 | inactive | 
Cc1cc(Nc2ccccc2)c2c(ccc3nc[nH]c32)n1 | 40 |  | 
CSc1ccc(Nc2cc(C)nc3ccc4nc[nH]c4c23)cc1 | 100 | 62% | 
